In patent US6087355A, “Cephalosporin antibiotics” (Microcide Pharmaceuticals, Inc., priority 1996, dated 2000):
Structures can show the parent of a compound that is named as a salt.

Legend:
[1] = tested on: S. aureus Col(Meth^R)(lac^-); assay: In vitro MIC, agar dilution; type: cell-based; settings: Staphylococcus aureus, read-out: minimum inhibitory concentration (MIC)
Procedure, shortened: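 Two-fold dilutions (128 to ≤0.25 μg/mL, in duplicate) were poured into Mueller-Hinton agar. Log-phase broth cultures were spot-inoculated at about 10^4 cfu per spot and incubated 35-36°C for 16-20 hours; the MIC was the lowest concentration inhibiting growth. Col is a high-level PBP2a producer; Col 8A is its isogenic PBP2a-lacking partner.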

[2] = tested on: S. aureus strain ATCC 13709 (methicillin-susceptible); assay: Murine model for lethal bacteremic peritonitis; type: in vivo, female Swiss-Webster mice; settings: Staphylococcus aureus, ATCC13709, SC, 72 h; for responders at 1.25 mg/kg: read-out: Survivors (converted); for ED50: two equal doses, IP challenge, read-out: ED50
Experimental: Groups of 5 female Swiss-Webster mice (Simonsen, Gilroy, Calif.) each are challenged by the intraperitoneal (IP) route with tenfold increments of a bacterial inoculum. This permits calculation of the mean lethal dose (LD50) and the LD100. For preliminary evaluation of a new antibiotic, mice are challenged IP with an LD100 titer of bacteria. In two equal doses administered at the time of bacterial challenge and 2 hours later, groups of 10 mice each are treated subcutaneously with two-fold increments of the test drug and an antibiotic of known efficacy in mice and humans (i.e., positive control). Mice are observed for 72 h. Those alive at 72 h are considered long term survivors. The total drug dose in mg/kg that protects 50% of mice in a group from death is termed the mean protective dose (PD50). PD50 s are similarly determined for several pathogens. The quantitative endpoints for the new drug are then compared with those obtained with reference antibiotics.
Six ten-fold dilutions of inoculum suspended in 0.5 mL of sterilized 7% hog gastric mucin (Sigma) are injected IP in groups of 5 mice each. A control group of 5 mice receive mucin alone. Mice are observed for 72 h. Those alive at 72 h are considered long term survivors. The mean lethal dose (LD50) and 100% lethal dose (LD100) are determined by the probit test.
For antibiotic efficacy studies, mice are challenged IP with bacterial titers that will afford an LD100 for the test strain. In two equal doses administered at the time of bacterial challenge and 2 hours later, groups of 10 mice each are treated by the subcutaneous route (SC) with twofold increments of the test antibiotic; another group is treated similarly with a reference antibiotic of known efficacy in animals and man. Drug doses can range from 0.01 to 512 mg/kg. If the drug is poorly soluble, Tween 20 or propylene glycol will be employed to solubilize the drug. Animals are observed for 72 h. The 50% protective dose (PD50) is calculated in mg/kg by the probit method. The PD50 is the same as the 50% effective dose (ED50) and the 50% curative dose (CD50). Samples of blood from the hearts of all animals that die and from half the mice that survive are cultured on brain-heart infusion agar. Animals that received a protective dosage of the test drug will be alive at 72 h, although they may appear moderately ill to very ill during the observation period. […] Most of these mice will die within 6 to 48 h. Those alive at 72 h will be considered long term survivors.
(Compound numbers correspond to those in MIC tables; data reported for challenge with methicillin-susceptible S. aureus strain ATCC 13709.)

E. faecalis ATCC 29212 = assay: In vitro MIC, agar dilution; type: cell-based; settings: Enterococcus faecalis, ATCC29212, read-out: minimum inhibitory concentration (MIC)
Procedure, shortened: (§1)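 Strains were spotted at roughly 10^4 cfu onto drug-containing Mueller-Hinton agar. MIC was read as the lowest inhibitory concentration after overnight incubation at 35-36 °C.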

E. coli ATCC 25992 = assay: In vitro MIC, agar dilution; type: cell-based; settings: Escherichia coli, ATCC25992, read-out: minimum inhibitory concentration (MIC)
Procedure, shortened: as §1

[3] = tested on: S. aureus ATCC 33593(Meth^R); assay: In vitro MIC, agar dilution; type: cell-based; settings: Staphylococcus aureus, ATCC33593, read-out: minimum inhibitory concentration (MIC)
Procedure, shortened: as §1

[4] = tested on: S. aureus 76(Meth^R)(lac^+); assay: In vitro MIC, agar dilution; type: cell-based; settings: Staphylococcus aureus, read-out: minimum inhibitory concentration (MIC)
Procedure, shortened: as §1

S. aureus ATCC 29213 = assay: In vitro MIC, agar dilution; type: cell-based; settings: Staphylococcus aureus, ATCC29213, read-out: minimum inhibitory concentration (MIC)
Procedure, shortened: as §1

[5] = tested on: S. aureus Spain #356(Meth^R); assay: In vitro MIC, agar dilution; type: cell-based; settings: Staphylococcus aureus, read-out: minimum inhibitory concentration (MIC)
Procedure, shortened: as §1

P. aeruginosa ATCC 27853 = assay: In vitro MIC, agar dilution; type: cell-based; settings: Pseudomonas aeruginosa, ATCC27853, read-out: minimum inhibitory concentration (MIC)
Procedure, shortened: as §1

[6] = tested on: S. aureus PC1(Meth^S)(lac^+); assay: In vitro MIC, agar dilution; type: cell-based; settings: Staphylococcus aureus, read-out: minimum inhibitory concentration (MIC)
Procedure, shortened: as §1

E. faecalis VanB(Van^R) = assay: In vitro MIC, agar dilution; type: cell-based; settings: Enterococcus faecalis, read-out: minimum inhibitory concentration (MIC)
Procedure, shortened: as §1

[7] = tested on: S. haemolyticus 05(Meth^R); assay: In vitro MIC, agar dilution; type: cell-based; settings: Staphylococcus haemolyticus, read-out: minimum inhibitory concentration (MIC)
Procedure, shortened: as §1

E. faecium ATCC 35667 = assay: In vitro MIC, agar dilution; type: cell-based; settings: Enterococcus faecium, ATCC35667, read-out: minimum inhibitory concentration (MIC)
Procedure, shortened: as §1

E. faecium A491(Amp^R) = assay: In vitro MIC, agar dilution; type: cell-based; settings: Enterococcus faecium, read-out: minimum inhibitory concentration (MIC)
Procedure, shortened: as §1

[8] = tested on: S. aureus ATCC 13709(Meth^S); assay: In vitro MIC, agar dilution; type: cell-based; settings: Staphylococcus aureus, ATCC13709, S. aureus ATCC 13709(Meth^S); read-out: minimum inhibitory concentration (MIC)
Procedure, shortened: as §1

E. faecium VanA(Van^R) = assay: In vitro MIC, agar dilution; type: cell-based; settings: Enterococcus faecium, read-out: minimum inhibitory concentration (MIC)
Procedure, shortened: as §1

Row | Structure (SMILES) | MIC [1] [µg/mL] | responders at 0.156 mg/kg ([2]; read-out: Survivors) [%] | responders at 0.3125 mg/kg ([2]; read-out: Survivors) [%] | responders at 0.625 mg/kg ([2]; read-out: Survivors) [%] | responders at 1.25 mg/kg [2] [%] | ED50 [2] [mg/kg] | MIC (E. faecalis ATCC 29212) [µg/mL] | MIC (E. coli ATCC 25992) [µg/mL] | MIC [3] [µg/mL] | MIC [4] [µg/mL] | MIC (S. aureus ATCC 29213) [µg/mL] | MIC [5] [µg/mL] | MIC (P. aeruginosa ATCC 27853) [µg/mL] | MIC [6] [µg/mL] | MIC (E. faecalis VanB(Van^R)) [µg/mL] | MIC [7] [µg/mL] | MIC (E. faecium ATCC 35667) [µg/mL] | MIC (E. faecium A491(Amp^R)) [µg/mL] | MIC [8] [µg/mL] | MIC (E. faecium VanA(Van^R)) [µg/mL] | further results
1 | NCCSCc1cnccc1SC1=C(C(=O)O)N2C(=O)[C@@H](NC(=O)/C(=N\O)c3nc(N)sc3Cl)[C@H]2SC1 [Cmpd 16, (7R)-7-[(Z)-2-(2-amino-5-chlorothiazol-4-yl)-2-(hydroxyimino)acetamido]-3-(3-aminoethylthiomethylpyrid-4-ylthio)-3-cephem-4-carboxylate, trifluoroacetic acid salt] | 0.5 | 20 | 10 | 30 | 55.6 | 1 | ≤ 0.06 | 8 | 1 | 1 | 0.25 | 1 | > 32 | 0.25 | 0.13 | 2 | 0.5 | 8 | 0.13 | 0.25 | responders at 2.5 mg/kg ([2]; read-out: Survivors): 80%
2 | CNCCSCc1cnccc1SC1=C(C(=O)O)N2C(=O)[C@@H](NC(=O)/C(=N\O)c3csc(N)n3)[C@H]2SC1 [Cmpd 15, (7R)-7-[(Z)-2-(aminothiazol-4-yl)-2-(hydroxyimino)acetamido]-3-(3-methylaminoethylthiomethylpyrid-4-ylthio)-3-cephem-4-carboxylate, trifluoroacetic acid salt] | 4 |  | 20 | 0 | 20 | 4.63 | 2 | 8 | 4 | 4 | 1 | 4 | > 32 | 1 | 0.5 | 8 | 2 | > 32 | 0.5 | 4 | responders at 2.5 mg/kg ([2]; read-out: Survivors): 50%; responders at 5 mg/kg ([2]; Dose 5 mg/kg, read-out: Survivors): 50%
3 | N=C(N)SCc1cnccc1SC1=C(C(=O)O)N2C(=O)[C@@H](NC(=O)/C(=N\O)c3csc(N)n3)[C@H]2SC1 [Cmpd 3, (7R)-7-[(Z)-2-(aminothiazol-4-yl)-2-(hydroxyimino)acetamido]-3-(3-isothioureidomethylpyrid-4-ylthio)-3-cephem-4-carboxylate, trifluoroacetic acid salt] | 8 | 0 | 50 | 80 | 70 | 0.42 | 0.5 | 2 | 8 | 8 | 0.5 | 8 | > 32 | 0.5 | 1 | 8 | 2 | > 32 | 0.5 | 8 | responders at 2.5 mg/kg ([2]; read-out: Survivors): 90%
4 | NCCSCc1cnccc1SC1=C(C(=O)O)N2C(=O)[C@@H](NC(=O)/C(=N\O)c3csc(N)n3)[C@H]2SC1 [Cmpd 10, (7R)-7-[(Z)-2-(aminothiazol-4-yl)-2-(hydroxyimino)acetamido]-3-(3-aminoethylthiomethylpyrid-4-ylthio)-3-cephem-4-carboxylate, trifluoroacetic acid salt] | 2 | 20 | 20 | 80 | 100 | 1.29 | 0.5 | 4 | 2 | 2 | 0.5 | 2 | > 32 | 0.5 | 1 | 4 | 2 | > 32 | 0.5 | 4 | responders at 0.078 mg/kg ([2]; Dose 0.078 mg/kg, read-out: Survivors): 20%
5 | CC(N)CSCc1cnccc1SC1=C(C(=O)O)N2C(=O)[C@@H](NC(=O)/C(=N\O)c3nc(N)sc3Cl)[C@H]2SC1 (stereo partly drawn) [Cmpd 36, (7R)-7-[(Z)-2-(2-amino-5-chlorothiazol-4-yl)-2-(hydroxyimino)acetamido]-3-(3-(2-aminoprop-1-ylthiomethyl)pyrid-4-ylthio)-3-cephem-4-carboxylate, trifluoroacetic acid salt] | 1 |  |  |  |  |  | 0.25 | 16 | 1 | 2 | 0.5 | 1 | > 32 | 0.25 | 0.13 | 2 | 0.5 | 8 | 0.25 | 1 | 
